Measurements reported in ChEMBL document CHEMBL1201862, “PubChem BioAssay data set” (2004).
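Values below derive from 48-hour exposures of cells grown in 96-well plates, with endpoints linearly interpolated between the two concentrations bracketing the appropriate inhibition level. GI50 is the concentration that inhibits growth by half.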 The source made the active and inactive calls. No stated cut-off is given here; in the data, active = GI50 up to about 1.1 µM and inactive = higher.

Key:
Test in all cases: NCI-60 cell line screen, 48 h
HT-29 = test system: HT-29
SK-MEL-2 = test system: SK-MEL-2
CAKI-1 = test system: CAKI-1
SF-295 = test system: SF-295
HL-60 = test system: HL-60
RXF 393 = test system: RXF 393
OVCAR-5 = test system: OVCAR-5
PC-3 = test system: PC-3
OVCAR-3 = test system: OVCAR-3
K562 = test system: K562
EKVX = test system: EKVX
SK-MEL-5 = test system: SK-MEL-5
UACC-62 = test system: UACC-62
SF-539 = test system: SF-539
IGROV-1 = test system: IGROV-1
CCRF-CEM = test system: CCRF-CEM
UO-31 = test system: UO-31
SNB-75 = test system: SNB-75
LOX IMVI = test system: LOX IMVI
SK-MEL-28 = test system: SK-MEL-28

Row | SMILES | GI50 (HT-29) | GI50 (SK-MEL-2) | GI50 (CAKI-1) | GI50 (SF-295) | GI50 (HL-60) | GI50 (RXF 393) | GI50 (OVCAR-5) | GI50 (PC-3) | GI50 (OVCAR-3) | GI50 (K562) | GI50 (EKVX) | GI50 (SK-MEL-5) | GI50 (UACC-62) | GI50 (SF-539) | GI50 (IGROV-1) | GI50 (CCRF-CEM) | GI50 (UO-31) | GI50 (SNB-75) | GI50 (LOX IMVI) | GI50 (SK-MEL-28)
1 | CCOC(=O)c1c(N=C(S)Nc2ccccc2)sc2c1CCN(C)C2 | > 100 µM (inactive) | > 100 µM (inactive) | > 100 µM (inactive) | > 100 µM (inactive) | > 100 µM (inactive) | > 100 µM (inactive) | > 100 µM (inactive) | > 100 µM (inactive) | > 100 µM (inactive) | > 100 µM (inactive) | > 100 µM (inactive) | > 100 µM (inactive) | > 100 µM (inactive) | > 100 µM (inactive) | > 100 µM (inactive) | > 100 µM (inactive) | > 100 µM (inactive) |  |  | 
2 | COc1ccc(-c2c3c(nc4nc(SCCc5ccccc5)nc(N)c24)CCCC3)cc1OC | > 100 µM (inactive) |  | > 100 µM (inactive) | 22.7 µM (inactive) | > 100 µM (inactive) | 24.9 µM (inactive) | > 100 µM (inactive) | > 100 µM (inactive) | > 100 µM (inactive) | > 100 µM (inactive) | > 100 µM (inactive) | > 100 µM (inactive) | > 100 µM (inactive) | 85.7 µM (inactive) | > 100 µM (inactive) | > 100 µM (inactive) | > 100 µM (inactive) | 20.5 µM (inactive) | > 100 µM (inactive) | > 100 µM (inactive)
3 | N#CCc1c(F)c(F)c(F)c(F)c1F | > 100 µM (inactive) |  | > 100 µM (inactive) | > 100 µM (inactive) | > 100 µM (inactive) | > 100 µM (inactive) | > 100 µM (inactive) | > 100 µM (inactive) |  | > 100 µM (inactive) | > 100 µM (inactive) | 54.6 µM (inactive) | > 100 µM (inactive) | > 100 µM (inactive) | > 100 µM (inactive) | > 100 µM (inactive) | > 100 µM (inactive) |  | > 100 µM (inactive) | > 100 µM (inactive)
4 | CC[C@]12C=CCN3CC[C@@]4(c5cc(Br)c(OC)c([N+](=O)[O-])c5N(C)[C@H]4[C@@](O)(C(=O)OC)[C@@H]1OC(C)=O)[C@@H]32 | > 100 µM (inactive) | 74.1 µM (inactive) | 40.3 µM (inactive) | 37 µM (inactive) | 33.7 µM (inactive) | 98.2 µM (inactive) | > 100 µM (inactive) | 40.4 µM (inactive) | 34.4 µM (inactive) | 0.443 µM (active) | 29.6 µM (inactive) | 36.2 µM (inactive) | > 100 µM (inactive) | > 100 µM (inactive) | 24.1 µM (inactive) | 24.7 µM (inactive) | 89.5 µM (inactive) | 30.5 µM (inactive) | 34.6 µM (inactive) | 63.4 µM (inactive)
5 | CC1CC/C(=C\c2ccc(Cl)cc2)C(=O)/C1=C\c1ccc(Cl)cc1 (configuration not stated) | 30.9 µM (inactive) | 20.4 µM (inactive) | 20.3 µM (inactive) |  |  | 33.9 µM (inactive) | 21.6 µM (inactive) | 34.4 µM (inactive) |  | 41 µM (inactive) | 26.4 µM (inactive) | 20.4 µM (inactive) | 25.4 µM (inactive) |  | 22.4 µM (inactive) | 41.9 µM (inactive) | 36.4 µM (inactive) | 49.2 µM (inactive) | 31.8 µM (inactive) | 53.1 µM (inactive)
6 | COc1ccc(/N=C(\C)c2ccncc2)cc1 | > 100 µM (inactive) | > 100 µM (inactive) | > 100 µM (inactive) | > 100 µM (inactive) |  | > 100 µM (inactive) | 72.8 µM (inactive) | > 100 µM (inactive) | > 100 µM (inactive) | > 100 µM (inactive) | > 100 µM (inactive) | 94.8 µM (inactive) | > 100 µM (inactive) | 21 µM (inactive) | > 100 µM (inactive) | > 100 µM (inactive) | 24.2 µM (inactive) | > 100 µM (inactive) | > 100 µM (inactive) | > 100 µM (inactive)
7 | O=C1C[C@H](Sc2ccccc2)C2(OCCO2)[C@@H](Sc2ccccc2)C1 | 1.64 µM (inactive) | 10.2 µM (inactive) | 3.1 µM (inactive) | 4.33 µM (inactive) | 0.272 µM (active) | 1 µM (active) | 3.35 µM (inactive) | 1.93 µM (inactive) | 2.16 µM (inactive) | 0.351 µM (active) | 4.52 µM (inactive) | 1.64 µM (inactive) | 2.01 µM (inactive) | 0.998 µM (active) | 1.5 µM (inactive) | 0.282 µM (active) | 1.23 µM (inactive) | 11.9 µM (inactive) | 0.7 µM (active) | 2.38 µM (inactive)
8 | Cc1ccc(S(=O)(=O)N2c3ccccc3[C@H]3CCc4c([nH]c5ccccc45)[C@H]32)cc1 | > 100 µM (inactive) | > 100 µM (inactive) | 4.33 µM (inactive) | > 100 µM (inactive) |  | > 100 µM (inactive) | > 100 µM (inactive) | > 100 µM (inactive) | > 100 µM (inactive) | 23.4 µM (inactive) | > 100 µM (inactive) | 32 µM (inactive) | > 100 µM (inactive) | 27.7 µM (inactive) | 0.789 µM (active) | 70 µM (inactive) | > 100 µM (inactive) | > 100 µM (inactive) | > 100 µM (inactive) | > 100 µM (inactive)
9 | Cc1ccc(/N=N/C(=N\NC(=O)c2ccc(C)cc2)c2ccc(N(CCC#N)CCC#N)cc2C)cc1 | 19.4 µM (inactive) | 20.5 µM (inactive) | 67 µM (inactive) | 38.4 µM (inactive) | 17.4 µM (inactive) | 44.8 µM (inactive) | 50.5 µM (inactive) | 24 µM (inactive) | 26.2 µM (inactive) | 35.9 µM (inactive) | 43 µM (inactive) | 4.69 µM (inactive) | 22.4 µM (inactive) | 13.7 µM (inactive) | 13.4 µM (inactive) | 49.4 µM (inactive) | > 100 µM (inactive) | 35.5 µM (inactive) | 35.7 µM (inactive) | 10.3 µM (inactive)
10 | O=C(O)CN(CC(=O)O)C(C(=O)O)c1ccccc1 (configuration not stated) | > 100 µM (inactive) | > 100 µM (inactive) | > 100 µM (inactive) | > 100 µM (inactive) | > 100 µM (inactive) | > 100 µM (inactive) | > 100 µM (inactive) | > 100 µM (inactive) | > 100 µM (inactive) | > 100 µM (inactive) | > 100 µM (inactive) | > 100 µM (inactive) | > 100 µM (inactive) | > 100 µM (inactive) | > 100 µM (inactive) | > 100 µM (inactive) | > 100 µM (inactive) | > 100 µM (inactive) | > 100 µM (inactive) | > 100 µM (inactive)
11 | O=C1c2ccccc2C(=O)N1/N=C1/SC(=N\c2ccccc2)/C(=N/c2ccccc2)N1c1ccccc1 | > 50 µM (inactive) | > 55.2 µM (inactive) | > 100 µM (inactive) | 26.4 µM (inactive) | > 40.4 µM (inactive) | 4.47 µM (inactive) | > 100 µM (inactive) | > 52.6 µM (inactive) | > 100 µM (inactive) | > 60 µM (inactive) | > 76.9 µM (inactive) | > 39 µM (inactive) | > 95.5 µM (inactive) | 33.2 µM (inactive) | > 78.7 µM (inactive) | > 51.3 µM (inactive) | 25.7 µM (inactive) | 19.9 µM (inactive) | > 100 µM (inactive) | > 35.1 µM (inactive)
12 | CCOC(=O)c1cc(C2CCN(Cc3ccccc3)C2=S)c(C(=O)C=[N+]=[N-])[nH]1 (configuration not stated) | 31.5 µM (inactive) | 21.2 µM (inactive) | 68.5 µM (inactive) | 20.5 µM (inactive) |  | 31 µM (inactive) | 30.3 µM (inactive) | 27.4 µM (inactive) | 17.5 µM (inactive) | 64.6 µM (inactive) | 26.7 µM (inactive) | 19.3 µM (inactive) | 18.3 µM (inactive) |  | 24.7 µM (inactive) | 13.4 µM (inactive) | 18.8 µM (inactive) | 29.4 µM (inactive) |  | 26 µM (inactive)
13 | Cc1ccc(NC(=O)C(Cc2c[nH]c3ccccc23)NC(=O)Oc2ccccc2)cc1C (configuration not stated) | 41.3 µM (inactive) | 85.9 µM (inactive) | 53 µM (inactive) | > 100 µM (inactive) | 40.6 µM (inactive) | 25.2 µM (inactive) | > 100 µM (inactive) | 37.3 µM (inactive) | 34.8 µM (inactive) | 59 µM (inactive) | 59.7 µM (inactive) | 44.1 µM (inactive) | 54.7 µM (inactive) | > 100 µM (inactive) | 30.5 µM (inactive) | 35.1 µM (inactive) | 77.6 µM (inactive) |  | 47.9 µM (inactive) | > 100 µM (inactive)
14 | Fc1ccc2c(c1)SC1=Nc3sc4cc(F)ccc4[n+]3CN12 | 28.8 µM (inactive) | 21.4 µM (inactive) | 14.9 µM (inactive) | 32.1 µM (inactive) | < 0.01 µM (active) | 26.5 µM (inactive) | 25.7 µM (inactive) | 21.4 µM (inactive) | 14.3 µM (inactive) | 14.3 µM (inactive) | 28 µM (inactive) | 11.1 µM (inactive) | 11.1 µM (inactive) | 12.7 µM (inactive) | 3.91 µM (inactive) |  | 19.1 µM (inactive) | 15.9 µM (inactive) | 18.4 µM (inactive) | 39.6 µM (inactive)
